Reference: ChEMBL document CHEMBL1201862, “PubChem BioAssay data set” (2004)
Activity calls are given as the source filed them.

Key:
[1] = target: T1, Corticotropin-releasing factor receptor 2/Corticotropin-releasing factor-binding protein (Homo sapiens, UniProt P24387+Q13324); test: activators of CRF receptor 2 with binding protein – uHTS hits, confirmation (AID 602473); format: functional; conditions: read-out: EC50_Mean
T1 sequence (Q13324 whole entry): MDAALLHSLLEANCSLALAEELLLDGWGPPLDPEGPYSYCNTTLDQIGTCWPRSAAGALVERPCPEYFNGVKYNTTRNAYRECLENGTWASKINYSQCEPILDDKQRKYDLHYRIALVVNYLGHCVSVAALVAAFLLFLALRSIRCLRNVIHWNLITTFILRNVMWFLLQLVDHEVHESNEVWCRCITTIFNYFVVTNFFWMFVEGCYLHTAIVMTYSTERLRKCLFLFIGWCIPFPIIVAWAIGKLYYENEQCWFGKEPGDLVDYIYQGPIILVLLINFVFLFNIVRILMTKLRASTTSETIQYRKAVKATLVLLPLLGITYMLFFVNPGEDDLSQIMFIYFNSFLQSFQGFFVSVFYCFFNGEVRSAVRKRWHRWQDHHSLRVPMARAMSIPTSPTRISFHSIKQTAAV
T1 sequence (P24387 whole entry): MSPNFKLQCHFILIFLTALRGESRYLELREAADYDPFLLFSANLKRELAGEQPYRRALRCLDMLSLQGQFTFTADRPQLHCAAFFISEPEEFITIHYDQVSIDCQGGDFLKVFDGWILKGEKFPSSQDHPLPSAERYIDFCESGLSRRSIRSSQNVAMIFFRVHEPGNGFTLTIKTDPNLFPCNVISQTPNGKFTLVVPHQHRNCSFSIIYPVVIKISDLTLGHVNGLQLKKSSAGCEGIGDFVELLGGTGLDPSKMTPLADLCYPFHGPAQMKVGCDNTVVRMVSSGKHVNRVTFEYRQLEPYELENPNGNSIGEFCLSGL

[2] = target: Prothrombin (Homo sapiens, UniProt P00734); test: Thrombin 1536 HTS Dose Response Confirmation. [Related pubchem assays: 1046 (Thrombin 1536 HTS; hits were confirmed in this assay)]; format: functional
[3] = target: T2, Polyadenylate-binding protein 1 (Homo sapiens, UniProt P11940); test: PABP1 MLLE–PAM2 binding inhibitor potency, dose response, biochemical, fluorescence polarization, FITC-PAM2 peptide (AID 602259); format: functional; conditions: read-out: IC50_Mean
[4] = target: T2, Polyadenylate-binding protein 1; test: PABP1 MLLE–PAM2 interaction inhibitors, dose response, miRNA deadenylation inhibitor project, biochemical, fluorescence polarization, Cy5-PAM2 peptide, secondary (AID 602260); format: functional; conditions: read-out: IC50_Mean
[5] = target: T3, Estrogen receptor (Homo sapiens, UniProt P03372);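 note: potency for inhibiting coactivator peptide recruitment to the receptor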
T3 sequence (P03372 whole entry): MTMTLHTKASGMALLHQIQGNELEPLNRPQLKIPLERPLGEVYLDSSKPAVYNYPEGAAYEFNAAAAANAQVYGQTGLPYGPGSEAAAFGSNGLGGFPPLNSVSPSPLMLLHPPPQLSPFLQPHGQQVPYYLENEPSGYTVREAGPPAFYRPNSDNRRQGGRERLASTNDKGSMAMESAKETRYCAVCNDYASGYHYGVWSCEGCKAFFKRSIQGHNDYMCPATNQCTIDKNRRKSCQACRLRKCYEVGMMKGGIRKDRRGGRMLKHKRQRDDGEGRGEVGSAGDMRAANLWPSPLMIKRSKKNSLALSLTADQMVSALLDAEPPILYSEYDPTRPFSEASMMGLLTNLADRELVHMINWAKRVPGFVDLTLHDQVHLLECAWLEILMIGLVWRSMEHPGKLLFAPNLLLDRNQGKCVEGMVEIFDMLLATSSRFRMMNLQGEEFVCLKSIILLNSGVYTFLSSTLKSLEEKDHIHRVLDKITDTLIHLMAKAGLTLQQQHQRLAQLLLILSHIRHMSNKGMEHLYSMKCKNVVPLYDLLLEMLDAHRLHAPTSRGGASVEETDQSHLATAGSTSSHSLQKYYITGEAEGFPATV

[6] = target: T4, Fatty acid synthase (Homo sapiens, UniProt P49327); test: FAS thioesterase domain inhibitors, dose response, biochemical, endpoint fluorescence intensity, uHTS hits (AID 624327); format: functional;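 note: fluorescence from hydrolysis of an O-methyl fluorescein acyl ester substrate by the enzyme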
[7] = target: T4, Fatty acid synthase; test: FAS thioesterase domain inhibitors, dose response, biochemical, kinetic fluorescence intensity (AID 624326); format: functional;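 note: rate of fluorescence rise from hydrolysis of a fluorogenic O-methyl fluorescein ester substrate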
[8] = target: T5, Histone-lysine N-methyltransferase NSD2 (Homo sapiens, UniProt O96028); format: biochemical
T5 sequence (O96028 whole entry): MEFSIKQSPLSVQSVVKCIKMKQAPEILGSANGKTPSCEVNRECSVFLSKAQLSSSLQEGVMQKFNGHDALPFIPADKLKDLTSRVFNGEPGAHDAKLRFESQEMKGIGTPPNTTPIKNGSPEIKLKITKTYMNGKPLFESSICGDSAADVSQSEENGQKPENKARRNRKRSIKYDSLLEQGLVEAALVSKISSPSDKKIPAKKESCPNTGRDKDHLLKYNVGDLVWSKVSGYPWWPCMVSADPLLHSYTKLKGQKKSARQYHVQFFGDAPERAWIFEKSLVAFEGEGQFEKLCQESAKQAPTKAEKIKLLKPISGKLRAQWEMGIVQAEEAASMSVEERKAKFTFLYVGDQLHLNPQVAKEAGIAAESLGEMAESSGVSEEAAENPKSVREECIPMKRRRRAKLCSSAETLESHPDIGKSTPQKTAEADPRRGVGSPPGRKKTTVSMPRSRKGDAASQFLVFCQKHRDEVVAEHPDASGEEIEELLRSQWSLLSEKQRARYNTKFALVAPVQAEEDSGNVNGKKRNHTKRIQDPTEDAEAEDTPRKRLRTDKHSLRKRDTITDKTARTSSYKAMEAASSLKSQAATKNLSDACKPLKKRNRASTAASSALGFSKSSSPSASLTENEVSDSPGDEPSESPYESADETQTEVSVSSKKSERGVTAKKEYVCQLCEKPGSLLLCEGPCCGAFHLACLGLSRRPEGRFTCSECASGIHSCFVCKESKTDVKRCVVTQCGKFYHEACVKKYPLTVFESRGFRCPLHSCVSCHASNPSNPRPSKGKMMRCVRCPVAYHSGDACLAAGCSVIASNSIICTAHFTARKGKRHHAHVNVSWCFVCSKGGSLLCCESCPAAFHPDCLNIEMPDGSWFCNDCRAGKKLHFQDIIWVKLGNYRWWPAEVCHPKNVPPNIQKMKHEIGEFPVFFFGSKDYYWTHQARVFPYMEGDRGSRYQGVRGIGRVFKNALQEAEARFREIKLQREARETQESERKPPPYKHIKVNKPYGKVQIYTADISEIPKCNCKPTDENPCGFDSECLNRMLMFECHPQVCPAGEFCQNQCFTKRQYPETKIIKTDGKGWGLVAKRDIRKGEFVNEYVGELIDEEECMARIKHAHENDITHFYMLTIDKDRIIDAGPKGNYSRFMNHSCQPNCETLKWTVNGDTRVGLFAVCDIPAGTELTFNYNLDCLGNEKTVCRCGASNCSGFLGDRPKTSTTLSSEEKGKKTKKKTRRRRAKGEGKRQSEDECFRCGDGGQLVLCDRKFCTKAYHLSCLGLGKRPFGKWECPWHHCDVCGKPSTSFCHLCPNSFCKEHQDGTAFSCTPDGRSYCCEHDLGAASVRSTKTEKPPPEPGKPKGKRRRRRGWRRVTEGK

[9] = test system: Streptococcus; test: Group A Streptococcus viability loss, dose response, counter-screen for streptokinase expression inhibitor project, luminescence, BacTiterGlo (AID 1915); format: functional, organism-based;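 note: potency for reduction of bacterial viability or growth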
[10] = target: T6, Streptokinase A (Streptococcus pyogenes serotype M1, UniProt P10520); test: S. pyogenes streptokinase expression inhibitors, potency, dose response, plasminogen activation absorbance, OD405 (AID 1914); format: functional, Streptococcus pyogenes M1 GAS;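 note: secreted streptokinase activity via plasminogen activation per viability signal from cell pellet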
T6 sequence (P10520 whole entry): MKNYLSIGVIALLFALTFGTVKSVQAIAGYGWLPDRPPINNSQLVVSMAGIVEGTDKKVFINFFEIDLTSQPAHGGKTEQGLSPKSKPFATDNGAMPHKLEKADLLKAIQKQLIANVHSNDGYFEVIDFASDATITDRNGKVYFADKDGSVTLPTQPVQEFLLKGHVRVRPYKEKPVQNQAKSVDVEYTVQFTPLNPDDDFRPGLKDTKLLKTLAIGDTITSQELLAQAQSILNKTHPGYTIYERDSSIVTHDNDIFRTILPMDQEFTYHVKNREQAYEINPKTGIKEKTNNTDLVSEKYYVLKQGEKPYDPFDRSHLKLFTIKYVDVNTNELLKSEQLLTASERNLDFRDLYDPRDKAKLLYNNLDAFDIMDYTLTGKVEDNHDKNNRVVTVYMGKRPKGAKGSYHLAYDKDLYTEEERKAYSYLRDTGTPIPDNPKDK

[11] = test system: Streptococcus sp. 'group A'; test: growth inhibition of control SK(-) GAS strain, dose response, counter-screen for streptokinase expression inhibitor project, luminescence, kanamycin, BacTiterGlo, confirmation (AID 1900); format: functional, organism-based
[12] = cytotoxicity toward NIH3T3 fibroblasts, dose response, counter-screen, cell-based, ATP luminescence, mouse fibroblasts (AID 2010); format: functional;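 note: cells exposed to compound for about 90 hours before reading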
[13] = inhibitors of intracellular T. cruzi replication, confirmation, NIH3T3 host cells, beta-gal luminescence (AID 2044); format: functional, cell-based;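 note: intracellular parasites grown in NIH/3T3 mouse fibroblasts as host cells; luminescent beta-galactosidase reporter signal from transgenic T. cruzi replicating inside host cells; inhibitors lower the luminescence signal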
[14] = target: T7, DNA repair protein RAD52 homolog (Homo sapiens, UniProt P43351); format: functional, biochemical
T7 sequence (P43351 whole entry): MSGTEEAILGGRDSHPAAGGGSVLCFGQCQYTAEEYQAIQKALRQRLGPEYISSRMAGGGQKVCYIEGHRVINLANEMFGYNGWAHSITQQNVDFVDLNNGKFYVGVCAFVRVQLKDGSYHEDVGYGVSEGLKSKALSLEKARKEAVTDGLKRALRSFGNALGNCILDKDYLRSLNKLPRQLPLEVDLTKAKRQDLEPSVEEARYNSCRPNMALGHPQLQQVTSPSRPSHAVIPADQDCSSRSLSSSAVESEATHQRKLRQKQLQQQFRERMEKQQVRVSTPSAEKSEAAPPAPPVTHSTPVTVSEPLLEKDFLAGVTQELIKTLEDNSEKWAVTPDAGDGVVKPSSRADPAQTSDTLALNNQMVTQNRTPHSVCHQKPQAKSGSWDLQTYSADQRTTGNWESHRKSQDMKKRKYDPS

T2 sequence (P11940 whole entry): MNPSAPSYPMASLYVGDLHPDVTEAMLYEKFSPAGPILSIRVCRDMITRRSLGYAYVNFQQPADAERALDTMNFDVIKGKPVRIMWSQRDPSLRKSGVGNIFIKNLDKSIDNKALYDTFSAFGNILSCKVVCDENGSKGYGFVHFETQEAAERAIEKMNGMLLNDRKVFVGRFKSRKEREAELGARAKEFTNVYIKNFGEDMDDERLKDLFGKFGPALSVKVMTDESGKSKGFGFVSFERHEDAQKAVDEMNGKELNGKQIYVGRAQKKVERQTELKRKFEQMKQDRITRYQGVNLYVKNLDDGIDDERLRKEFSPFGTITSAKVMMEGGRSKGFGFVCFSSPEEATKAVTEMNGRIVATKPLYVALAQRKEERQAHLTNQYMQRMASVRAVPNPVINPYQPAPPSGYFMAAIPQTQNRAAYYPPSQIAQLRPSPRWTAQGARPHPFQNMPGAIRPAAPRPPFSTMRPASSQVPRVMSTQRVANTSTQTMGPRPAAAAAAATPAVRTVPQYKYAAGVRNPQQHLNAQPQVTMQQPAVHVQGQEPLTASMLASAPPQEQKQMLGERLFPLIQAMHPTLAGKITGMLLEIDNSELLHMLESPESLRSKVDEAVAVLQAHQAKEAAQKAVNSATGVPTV
T4 sequence (P49327 whole entry, the tested form may be a part): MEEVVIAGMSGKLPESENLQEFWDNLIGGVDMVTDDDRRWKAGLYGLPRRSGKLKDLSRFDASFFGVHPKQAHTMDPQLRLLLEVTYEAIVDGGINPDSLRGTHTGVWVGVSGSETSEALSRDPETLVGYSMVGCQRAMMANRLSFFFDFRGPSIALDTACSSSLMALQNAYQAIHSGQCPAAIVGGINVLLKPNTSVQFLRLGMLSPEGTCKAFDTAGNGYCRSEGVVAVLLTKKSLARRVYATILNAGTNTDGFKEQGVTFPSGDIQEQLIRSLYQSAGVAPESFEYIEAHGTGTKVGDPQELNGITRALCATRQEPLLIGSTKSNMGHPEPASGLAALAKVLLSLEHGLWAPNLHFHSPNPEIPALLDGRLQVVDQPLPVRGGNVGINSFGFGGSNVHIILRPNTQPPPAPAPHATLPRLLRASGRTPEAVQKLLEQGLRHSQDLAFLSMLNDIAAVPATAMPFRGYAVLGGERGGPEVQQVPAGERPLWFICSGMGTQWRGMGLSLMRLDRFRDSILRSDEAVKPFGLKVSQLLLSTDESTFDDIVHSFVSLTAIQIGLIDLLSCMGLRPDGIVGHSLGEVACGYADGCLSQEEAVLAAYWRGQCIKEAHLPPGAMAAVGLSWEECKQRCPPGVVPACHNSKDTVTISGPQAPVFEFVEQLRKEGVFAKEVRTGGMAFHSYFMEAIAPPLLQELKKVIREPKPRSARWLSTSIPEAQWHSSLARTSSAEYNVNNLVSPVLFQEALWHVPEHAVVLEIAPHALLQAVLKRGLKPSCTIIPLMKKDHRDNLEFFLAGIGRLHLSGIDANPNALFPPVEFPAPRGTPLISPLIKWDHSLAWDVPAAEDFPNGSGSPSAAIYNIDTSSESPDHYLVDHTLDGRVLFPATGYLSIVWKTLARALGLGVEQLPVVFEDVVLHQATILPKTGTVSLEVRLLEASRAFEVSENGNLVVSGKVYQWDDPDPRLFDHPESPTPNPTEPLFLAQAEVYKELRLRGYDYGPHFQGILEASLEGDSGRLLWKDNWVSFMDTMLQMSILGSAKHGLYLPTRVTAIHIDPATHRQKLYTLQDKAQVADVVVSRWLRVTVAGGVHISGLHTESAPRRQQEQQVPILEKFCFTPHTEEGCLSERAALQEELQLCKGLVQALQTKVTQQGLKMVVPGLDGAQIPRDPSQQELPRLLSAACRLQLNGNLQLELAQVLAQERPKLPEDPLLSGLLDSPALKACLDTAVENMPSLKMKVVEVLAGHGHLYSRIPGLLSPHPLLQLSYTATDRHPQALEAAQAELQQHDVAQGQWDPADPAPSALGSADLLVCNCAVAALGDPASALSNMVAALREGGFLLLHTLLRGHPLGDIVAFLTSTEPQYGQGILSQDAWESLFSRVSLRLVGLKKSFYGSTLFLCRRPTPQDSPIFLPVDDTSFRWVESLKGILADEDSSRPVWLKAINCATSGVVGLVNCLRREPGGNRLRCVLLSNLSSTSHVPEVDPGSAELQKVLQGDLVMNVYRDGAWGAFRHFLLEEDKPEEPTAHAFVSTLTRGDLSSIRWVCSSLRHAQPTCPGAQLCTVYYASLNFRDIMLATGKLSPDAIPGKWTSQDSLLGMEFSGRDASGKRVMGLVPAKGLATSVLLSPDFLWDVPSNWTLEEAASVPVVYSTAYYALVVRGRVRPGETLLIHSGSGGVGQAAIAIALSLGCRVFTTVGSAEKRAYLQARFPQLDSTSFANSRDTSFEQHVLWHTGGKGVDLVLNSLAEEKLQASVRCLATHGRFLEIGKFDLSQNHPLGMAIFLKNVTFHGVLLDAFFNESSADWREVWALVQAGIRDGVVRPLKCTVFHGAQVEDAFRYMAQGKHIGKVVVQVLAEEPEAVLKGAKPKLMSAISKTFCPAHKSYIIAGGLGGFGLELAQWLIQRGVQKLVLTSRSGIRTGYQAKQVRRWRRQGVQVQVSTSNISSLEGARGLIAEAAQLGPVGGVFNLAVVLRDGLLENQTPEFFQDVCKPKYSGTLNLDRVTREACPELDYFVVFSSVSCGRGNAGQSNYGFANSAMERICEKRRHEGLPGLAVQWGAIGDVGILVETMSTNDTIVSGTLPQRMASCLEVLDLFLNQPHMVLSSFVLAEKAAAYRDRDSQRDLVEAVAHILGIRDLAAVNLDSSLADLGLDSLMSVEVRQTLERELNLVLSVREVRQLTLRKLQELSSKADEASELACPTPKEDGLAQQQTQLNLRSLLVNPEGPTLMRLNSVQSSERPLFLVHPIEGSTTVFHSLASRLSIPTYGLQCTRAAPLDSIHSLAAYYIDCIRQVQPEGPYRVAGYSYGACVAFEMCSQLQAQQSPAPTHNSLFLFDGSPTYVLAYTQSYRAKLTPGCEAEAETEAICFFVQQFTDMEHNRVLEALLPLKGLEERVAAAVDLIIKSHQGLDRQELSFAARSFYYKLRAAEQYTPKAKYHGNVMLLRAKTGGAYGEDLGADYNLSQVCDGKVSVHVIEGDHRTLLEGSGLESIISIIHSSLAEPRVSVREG

With `Cn1c(CN2CCCCC2)nc2cc(NS(=O)(=O)c3ccc(Cl)cc3)ccc21` the EC50 [1] was > 53 µM (inactive) and the IC50 [2] was 1.06 µM (active).
For `COCCNC(=O)Cn1nc(C(F)(F)F)cc1C`, the IC50 [2] was > 50 µM (not active).
With `O=S(=O)(/N=C(/Sc1ccccc1)c1ccccc1)c1ccccc1` the IC50 [3] was > 66 µM (inactive), the IC50 [4] was > 66 µM (inactive) and the IC50 [5] was 10.2 µM (active).
For `CCOc1ccc(C2CC(=O)N(Nc3ccc([N+](=O)[O-])cc3[N+](=O)[O-])C2=O)cc1` (configuration not stated), the IC50 [6] was 1.84 µM (active), the IC50 [7] was 1.44 µM (active) and the IC50 [2] was > 50 µM (not active).
In the case of `CCOC(=O)C1=C(C)N=c2s/c(=C\c3ccc(O)c([N+](=O)[O-])c3)c(=O)n2C1c1ccccc1OC` (configuration not stated), the AC50 [8] is reported as > 20 µM (inactive), the EC50 [9] is reported as 31.3 µM (active) and the EC50 [10] is reported as 20.4 µM (active). The EC50 [11] was 7.08 µM (active).
In the case of `Cn1c(=O)c2cc(NC(=O)c3ccccc3Cl)c(=O)oc2n(C)c1=O`, the IC50 [2] is reported as 0.321 µM (active).
With `Cc1cc(C)c2nc(N(CCCN(C)C)C(=O)c3ccc4c(c3)CCCC4)sc2c1` the EC50 [12] was 4.48 µM (active), the EC50 [13] was 0.727 µM (active) and the AC50 [14] was 13.4 µM (active).
